Laboratory results published in ChEMBL document CHEMBL1909046, “DrugMatrix in vitro pharmacology data”.
pIC50, pKi: −log10 of the molar value.

Legend:
[1] = DRUGMATRIX: Potassium Channel [KATP] radioligand binding (ligand: [3H] Glyburide); type: cell membranes, Membrane; conditions: hit-t15; Not Active = under 50% inhibition at 10 µM
[2] = biological target: Sigma non-opioid intracellular receptor 1 (Homo sapiens, UniProt Q99720); test: DRUGMATRIX: Sigma1 radioligand binding (ligand: [3H] Haloperidol); type: cell membranes, Jurkat, Membrane; conditions: Not Active = under 50% inhibition at 10 µM; for IC50: jurkat; for pIC50: read-out: IC50; for pKi: read-out: Ki
Calcitonin receptor = biological target: T1, Calcitonin receptor (Homo sapiens, UniProt P30988); type: cell membranes, Membrane; conditions: t47d; further: in other assays of this panel Not Active means under 50% inhibition at 10 µM
T1 sequence (P30988 whole entry): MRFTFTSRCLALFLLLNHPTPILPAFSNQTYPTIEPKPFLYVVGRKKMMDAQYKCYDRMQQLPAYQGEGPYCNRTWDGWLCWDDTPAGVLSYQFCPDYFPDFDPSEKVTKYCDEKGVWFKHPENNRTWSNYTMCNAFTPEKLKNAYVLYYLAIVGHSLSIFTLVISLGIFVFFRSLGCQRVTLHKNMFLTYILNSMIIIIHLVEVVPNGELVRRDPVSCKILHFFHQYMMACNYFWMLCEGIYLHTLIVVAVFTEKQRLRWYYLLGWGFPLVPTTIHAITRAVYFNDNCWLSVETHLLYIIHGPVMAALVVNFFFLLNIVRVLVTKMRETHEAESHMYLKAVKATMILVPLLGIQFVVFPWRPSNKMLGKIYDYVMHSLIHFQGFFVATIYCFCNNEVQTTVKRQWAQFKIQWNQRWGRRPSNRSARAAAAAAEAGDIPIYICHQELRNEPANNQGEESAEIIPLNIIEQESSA

[3] = biological target: 5-hydroxytryptamine receptor 6 (Homo sapiens, UniProt P50406); type: cell membranes, HeLa, Membrane; conditions: for IC50: hela; for pIC50: read-out: IC50; for pKi: read-out: Ki; on all read-outs here: in other assays of this panel Not Active means under 50% inhibition at 10 µM
[4] = DRUGMATRIX: Calcium Channel Type L, Phenylalkylamine radioligand binding (ligand: [3H] (-)-Desmethoxyverapamil (D-888)); type: cell membranes, Rattus norvegicus, Wistar, Brain, Membrane; conditions: Not Active = under 50% inhibition at 10 µM
B2 bradykinin receptor = biological target: T2, B2 bradykinin receptor (Homo sapiens, UniProt P30411); type: cell membranes, Membrane; conditions: chem-1; further: in other assays of this panel Not Active means under 50% inhibition at 10 µM
T2 sequence (P30411 whole entry): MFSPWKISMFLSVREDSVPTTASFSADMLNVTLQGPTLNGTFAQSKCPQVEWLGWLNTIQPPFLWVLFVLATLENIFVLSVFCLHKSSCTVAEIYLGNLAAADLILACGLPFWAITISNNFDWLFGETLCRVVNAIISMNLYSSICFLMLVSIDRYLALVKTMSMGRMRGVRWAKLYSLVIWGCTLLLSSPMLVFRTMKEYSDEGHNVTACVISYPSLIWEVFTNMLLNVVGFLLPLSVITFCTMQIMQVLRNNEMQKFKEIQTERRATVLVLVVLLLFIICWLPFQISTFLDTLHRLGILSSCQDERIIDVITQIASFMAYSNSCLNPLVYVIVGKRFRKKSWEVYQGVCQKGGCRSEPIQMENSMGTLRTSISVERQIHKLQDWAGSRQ

Chain of 5-hydroxytryptamine receptor 6 (P50406 whole entry): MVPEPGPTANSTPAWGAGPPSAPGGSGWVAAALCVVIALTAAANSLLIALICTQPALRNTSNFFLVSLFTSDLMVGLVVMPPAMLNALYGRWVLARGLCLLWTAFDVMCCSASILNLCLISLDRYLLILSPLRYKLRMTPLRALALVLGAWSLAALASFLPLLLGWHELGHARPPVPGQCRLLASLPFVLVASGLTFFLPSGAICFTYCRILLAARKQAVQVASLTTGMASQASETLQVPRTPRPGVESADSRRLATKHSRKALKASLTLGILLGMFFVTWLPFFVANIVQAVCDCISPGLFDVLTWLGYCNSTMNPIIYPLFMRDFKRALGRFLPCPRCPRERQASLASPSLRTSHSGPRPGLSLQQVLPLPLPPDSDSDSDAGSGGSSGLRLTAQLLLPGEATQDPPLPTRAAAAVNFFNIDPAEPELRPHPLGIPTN
Chain of Sigma non-opioid intracellular receptor 1 (Q99720 whole entry): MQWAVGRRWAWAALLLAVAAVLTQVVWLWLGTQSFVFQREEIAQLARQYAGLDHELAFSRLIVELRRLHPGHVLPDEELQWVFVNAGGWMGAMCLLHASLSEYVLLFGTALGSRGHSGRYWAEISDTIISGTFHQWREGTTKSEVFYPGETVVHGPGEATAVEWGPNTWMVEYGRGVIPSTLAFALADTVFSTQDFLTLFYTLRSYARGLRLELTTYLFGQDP

Row | SMILES | IC50 [1] | Ki [1] | IC50 [2] | IC50 (Calcitonin receptor) | IC50 [3] | IC50 [4] | Ki [4] | IC50 (B2 bradykinin receptor) | pIC50 ([4]; read-out: IC50) | pKi ([4]; read-out: Ki) | pIC50 [2] | pKi [2] | pIC50 [3] | pKi [3]
1 | Cc1c(C)c2c(c(C)c1O)CCC(C)(CN1CCN(c3cc(N4CCCC4)nc(N4CCCC4)n3)CC1)O2 (centres undefined) | Not Active | Not Active | Not Active | Not Active | Not Active | Not Active | Not Active | Not Active | – | – | – | – | – | –
2 | COc1ccc(CCN(C)CCCC(C#N)(c2ccc(OC)c(OC)c2)C(C)C)cc1OC (centres undefined) | Not Active | Not Active | Not Active | Not Active | Not Active | – | – | Not Active | 7.33 | 7.35 | – | – | – | –
3 | CC(C)Cc1ccc([C@@H](C)C(=O)O)cc1 [(R)-IBUPROPHEN] | Not Active | Not Active | Not Active | Not Active | Not Active | Not Active | Not Active | Not Active | – | – | – | – | – | –
4 | CN(C)CCOC(c1ccccc1)c1ccccc1 [DIPHENHYDRAMINE] | – | – | Not Active | Not Active | Not Active | – | – | Not Active | – | – | – | – | – | –
5 | Clc1ccc(COC(Cn2ccnc2)c2ccc(Cl)cc2Cl)cc1 (centres undefined) [ECONAZOLE] | – | – | – | Not Active | – | – | – | Not Active | – | – | 4.68 | 5.05 | 4.96 | 5.30
6 | CCN(CC)CCOc1ccc(/C(=C(/Cl)c2ccccc2)c2ccccc2)cc1 [ENCLOMIPHENE] | – | – | – | Not Active | – | – | – | Not Active | – | – | – | – | 5.82 | 6.15
7 | Fc1ccc(C(c2ccc(F)cc2)N2CCN(C/C=C/c3ccccc3)CC2)cc1 [FLUNARIZINE] | – | – | – | Not Active | Not Active | – | – | Not Active | – | – | 7.60 | 8.00 | – | –
8 | CNCCC(Oc1ccc(C(F)(F)F)cc1)c1ccccc1 (centres undefined) [FLUOXETINE] | – | – | – | Not Active | – | – | – | Not Active | – | – | – | – | – | –
9 | Cc1ccc(NC(=O)c2ccc(CN3CCN(C)CC3)cc2)cc1Nc1nccc(-c2cccnc2)n1 [IMATINIB] | – | – | Not Active | Not Active | Not Active | – | – | Not Active | – | – | – | – | – | –
10 | CC(C)Oc1ccc2c(=O)c(-c3ccccc3)coc2c1 [IPRIFLAVONE] | Not Active | Not Active | Not Active | Not Active | Not Active | Not Active | Not Active | Not Active | – | – | – | – | – | –
11 | CC(C)NCC(O)c1ccc(O)c(O)c1 (centres undefined) [ISOPROTERENOL] | Not Active | Not Active | Not Active | Not Active | Not Active | Not Active | Not Active | Not Active | – | – | – | – | – | –
12 | CNC1(c2ccccc2Cl)CCCCC1=O (centres undefined) [KETAMINE] | Not Active | Not Active | Not Active | Not Active | Not Active | Not Active | Not Active | Not Active | – | – | – | – | – | –
13 | N#Cc1ccc(C(c2ccc(C#N)cc2)n2cncn2)cc1 [LETROZOLE] | Not Active | Not Active | Not Active | Not Active | Not Active | Not Active | Not Active | Not Active | – | – | – | – | – | –
14 | CCN1CCC[C@H]1CNC(=O)c1cc(S(N)(=O)=O)ccc1OC [LEVOSULPIRIDE] | Not Active | Not Active | Not Active | Not Active | Not Active | Not Active | Not Active | Not Active | – | – | – | – | – | –
15 | CCN(CC)CC(=O)Nc1c(C)cccc1C [LIDOCAINE] | Not Active | Not Active | Not Active | Not Active | Not Active | Not Active | Not Active | Not Active | – | – | – | – | – | –
16 | O=C1Nc2ccc(Cl)cc2C(c2ccccc2Cl)=NC1O (centres undefined) [LORAZEPAM] | Not Active | Not Active | Not Active | Not Active | Not Active | Not Active | Not Active | Not Active | – | – | – | – | – | –
17 | CO[C@@H]1[C@@H](OC)[C@H](C)[C@@](O)(CC(=O)O)O[C@H]1[C@H](C)[C@H]1O[C@@]2(CC[C@@](C)([C@H]3CC[C@@](C)([C@@H]4O[C@@H]([C@H]5O[C@](C)(O)[C@H](C)C[C@@H]5C)C[C@@H]4O[C@@H]4C[C@H](OC)[C@@H](OC)[C@H](C)O4)O3)O2)C[C@H](O)[C@H]1C [MADURAMICIN ACID] | Not Active | Not Active | Not Active | Not Active | – | Not Active | Not Active | Not Active | – | – | – | – | 8.77 | 9.10
18 | COc1c2occc2cc2ccc(=O)oc12 [METHOXSALEN] | Not Active | Not Active | Not Active | Not Active | Not Active | Not Active | Not Active | Not Active | – | – | – | – | – | –
19 | C[C@H]1C[C@@H]2[C@H]([C@@H](O)C[C@@]3(C)[C@H]2CC[C@]3(O)C(=O)CO)[C@@]2(C)C=CC(=O)C=C12 [METHYLPREDNISOLONE] | Not Active | Not Active | Not Active | Not Active | Not Active | Not Active | Not Active | Not Active | – | – | – | – | – | –
20 | Cc1cccc(C)c1OCC(C)N (centres undefined) [MEXILETINE] | Not Active | Not Active | Not Active | Not Active | Not Active | Not Active | Not Active | Not Active | – | – | – | – | – | –
21 | Nc1cc(N2CCCCC2)nc(N)[n+]1[O-] [MINOXIDIL] | Not Active | Not Active | Not Active | Not Active | Not Active | Not Active | Not Active | Not Active | – | – | – | – | – | –
22 | CO[C@H]1/C=C/O[C@@]2(C)Oc3c(C)c(O)c4c(O)c(c(/C=N/N5CCN(C6CCCC6)CC5)c(O)c4c3C2=O)NC(=O)/C(C)=C\C=C\[C@H](C)[C@H](O)[C@@H](C)[C@@H](O)[C@@H](C)[C@H](OC(C)=O)[C@@H]1C [RIFAPENTINE] | Not Active | Not Active | Not Active | Not Active | Not Active | Not Active | Not Active | Not Active | – | – | – | – | – | –
23 | CCCCOc1cc(CC2CNC(=O)N2)ccc1OC (centres undefined) [RO-201724] | Not Active | Not Active | Not Active | Not Active | Not Active | Not Active | Not Active | Not Active | – | – | – | – | – | –
24 | CC[C@@H](C(=O)[C@@H](C)[C@@H](O)[C@H](C)[C@@H]1O[C@@H]([C@@H](CC)C(=O)O)CC[C@@H]1C)[C@H]1O[C@]2(C=C[C@@H](O)[C@]3(CC[C@@](C)([C@H]4CC[C@](O)(CC)[C@H](C)O4)O3)O2)[C@H](C)C[C@@H]1C [SALINOMYCIN] | Not Active | Not Active | Not Active | Not Active | Not Active | Not Active | Not Active | Not Active | – | – | – | – | – | –
25 | O=C(Oc1ccccc1C(=O)O)c1ccccc1O [SALSALATE] | Not Active | Not Active | Not Active | Not Active | Not Active | Not Active | Not Active | Not Active | – | – | – | – | – | –
26 | O=C(O)c1cn(-c2ccc(F)cc2)c2cc(N3CCNCC3)c(F)cc2c1=O [SARAFLOXACIN] | Not Active | Not Active | Not Active | Not Active | Not Active | Not Active | Not Active | Not Active | – | – | – | – | – | –
27 | CN[C@H]1CC[C@@H](c2ccc(Cl)c(Cl)c2)c2ccccc21 [SERTRALINE] | – | – | – | Not Active | Not Active | – | – | Not Active | – | – | – | – | – | –
28 | CC(C)NCC(O)c1ccc(NS(C)(=O)=O)cc1 (centres undefined) [SOTALOL] | Not Active | Not Active | Not Active | Not Active | Not Active | Not Active | Not Active | Not Active | – | – | – | – | – | –
29 | O.O.O.O.O.O.[Cl-].[Cl-].[Sr+2] [STRONTIUM CHLORIDE HEXAHYDRATE] | – | – | Not Active | Not Active | Not Active | Not Active | Not Active | Not Active | – | – | – | – | – | –
30 | COc1cc2nc(N3CCN(C(=O)C4CCCO4)CC3)nc(N)c2cc1OC (centres undefined) [TERAZOSIN] | – | – | Not Active | Not Active | Not Active | Not Active | Not Active | Not Active | – | – | – | – | – | –
